In patent US20240262819A1, “NOVEL COMPOUNDS HAVING INHIBITORY ACTIVITY AGAINST GLUCOSYLCERAMIDE SYNTHASE OR PHARMACEUTICALLY ACCEPTABLE SALT THEREOF, PROCESSES FOR PREPARING THE SAME, AND PHARMACEUTICAL COMPOSITIONS COMPRISING THE SAME” (YUHAN CORPORATION, priority 2021, published 2024):
Several values for one entry are separate records, joined by “and”; a condition that tells them apart may be missing. Equal values may be shown once. Read-outs that look alike come from different tables or passages of the source.

Legend:
[1] = Evaluation of blood-brain barrier (BBB) permeability through oral administration; format: in vivo, mice; conditions: mouse, in vivo
Method: The blood-brain barrier (BBB) permeability was evaluated in mice, with respect to the compounds according to the present invention and the control (ibiglustat). Each compound of the present invention and the control were suspended in 0.5% methyl cellulose containing 0.2% Tween 80 and then orally administered to mice at a dose of 10 or 30 mg/10 ml/kg. After the whole blood was collected from the heart of each mouse at the time of 4 hours after the administration, it was placed in a lithium heparin tube and immediately centrifuged to obtain the plasma. After the exsanguination was carried out through abdominal vena cava incision, the forebrain was taken by dissection of the head. Both of the forebrain and the plasma were stored in a −80° C. freezer until the analysis of drug concentrations therein. For the analysis of drug concentrations therein, the forebrain was immersed in distilled water and then homogenized with a homogenizer to obtain a homogenate. Each plasma and homogenate was treated with acetonitrile to precipitate proteins, vortexed for 15 seconds, and then centrifuged (12700 rpm, 10 min, 4° C.). The obtained supernatant was diluted with an 80% aqueous solution of acetonitrile containing 0.1% formic acid and then analyzed with an LC-MS/MS instrument. LC-MS/MS analysis was carried out with a reversed-phase column, using distilled water containing 0.1% formic acid and acetonitrile as mobile phases. Each eluted material was detected through a mass spectrometer to calculate the drug concentrations thereof. The brain-plasma drug ratio (B/P ratio) was calculated from the drug concentrations in each tissue to evaluate the blood-brain barrier (BBB) permeability.

[2] = tested on: GM1 production in Jurkat cells; assay: cells; format: cell-based; conditions: Homo sapiens, Jurkat, 72 h
[3] = mice, oral, dose 30 mg/kg, 4 hr, read-out: Mean brain-plasma drug ratio at 4 hr
[4] = mice, oral, dose 30 mg/kg, 4 hr, read-out: Mean drug concentrations in brain tissue at 4 hr
[5] = mice, oral, dose 30 mg/kg, 4 hr, read-out: Mean drug concentrations in plasma at 4 hr

SMILES	Kp at 4 h ([1]; po, 30 mg/kg)	concentration at 4 h ([1]; po, 30 mg/kg)	IC50 [2] [nM]	Kp at 4 h [1, 3]	concentration at 4 h [1, 4] [ng/g]	concentration at 4 h [1, 5] [ng/mL]	Kp at 4 h ([1]; mice, oral, dose 10 mg/kg, 4 hr, read-out: Mean brain-plasma drug ratio at 4 hr)	concentration at 4 h ([1]; mice, oral, dose 10 mg/kg, 4 hr, read-out: Mean drug concentrations in brain tissue at 4 hr) [ng/g]	concentration at 4 h ([1]; mice, oral, dose 10 mg/kg, 4 hr, read-out: Mean drug concentrations in plasma at 4 hr) [ng/mL]
CC(C)(NC(=O)O[C@@H]1CN2CCC1CC2)c1csc(-c2ccc(F)cc2)n1 [Control, Ibiglustat, reference compound]	0.501	2640 ng/mL and 1320 ng/g	–	–	–	–	–	–	–
CCCOc1c(C)cc(-c2ccc3c(c2)CC(C)(C)[C@H]3NC(=O)O[C@@H]2CN3CCC2CC3)cc1C [Example 9, (S)-quinuclidin-3-yl((R)-5-(3,5-dimethyl-4-propoxyphenyl)-2,2-dimethyl-2,3-dihydro-1H-inden-1-yl)carbamate]	–	–	22.1	6.84	2750	403	–	–	–
Cc1cc(-c2ccc3c(c2)CC(C)(C)[C@H]3NC(=O)O[C@@H]2CN3CCC2CC3)cc(C)c1OC(C)C [Example 10, (S)-quinuclidin-3-yl((R)-5-(4-isopropoxy-3,5-dimethylphenyl)-2,2-dimethyl-2,3-dihydro-1H-inden-1-yl)carbamate]	–	–	10.3	5.62	6100	1090	–	–	–
CC(C)Oc1ccc(-c2ccc3c(c2)CC(C)(C)[C@H]3NC(=O)O[C@@H]2CN3CCC2CC3)cc1Cl [Example 11, (S)-quinuclidin-3-yl((R)-5-(3-chloro-4-isopropoxyphenyl)-2,2-dimethyl-2,3-dihydro-1H-inden-1-yl)carbamate]	–	–	23.4	–	–	–	9.12	2410	265
COc1ccc(-c2ccc3c(c2)CC(C)(C)[C@H]3NC(=O)O[C@@H]2CN3CCC2CC3)cc1Cl [Example 14, (S)-quinuclidin-3-yl((R)-5-(3-chloro-4-methoxyphenyl)-2,2-dimethyl-2,3-dihydro-1H-inden-1-yl)carbamate]	–	–	48.9	3.92	3070	781	–	–	–
CCOc1ccc(-c2ccc3c(c2)CC(C)(C)[C@H]3NC(=O)O[C@@H]2CN3CCC2CC3)cc1Cl [Example 15, (S)-quinuclidin-3-yl((R)-5-(3-chloro-4-ethoxyphenyl)-2,2-dimethyl-2,3-dihydro-1H-inden-1-yl)carbamate]	–	–	40.5	4.66	6030	1290	–	–	–
CCCOc1ccc(-c2ccc3c(c2)CC(C)(C)[C@H]3NC(=O)O[C@@H]2CN3CCC2CC3)cc1Cl [Example 16, (S)-quinuclidin-3-yl((R)-5-(3-chloro-4-propoxyphenyl)-2,2-dimethyl-2,3-dihydro-1H-inden-1-yl)carbamate]	–	–	28.7	8.02	1280	160	–	–	–
CCCOc1ccc(-c2ccc3c(c2)CC(C)(C)[C@H]3NC(=O)O[C@@H]2CN3CCC2CC3)cc1F [Example 20, (S)-quinuclidin-3-yl((R)-5-(3-fluoro-4-propoxyphenyl)-2,2-dimethyl-2,3-dihydro-1H-inden-1-yl)carbamate]	–	–	18.4	7.12	4070	578	–	–	–
CC(C)Oc1ccc(-c2ccc3c(c2)CC(C)(C)[C@H]3NC(=O)O[C@@H]2CN3CCC2CC3)cc1F [Example 21, (S)-quinuclidin-3-yl((R)-5-(3-fluoro-4-isopropoxyphenyl)-2,2-dimethyl-2,3-dihydro-1H-inden-1-yl)carbamate]	–	–	20.9	6.48	9510	1480	–	–	–
CCOc1c(C)cc(-c2ccc3c(c2)CC(C)(C)[C@H]3NC(=O)O[C@@H]2CN3CCC2CC3)cc1C [Example 22, (S)-quinuclidin-3-yl((R)-5-(4-ethoxy-3,5-dimethylphenyl)-2,2-dimethyl-2,3-dihydro-1H-inden-1-yl)carbamate]	–	–	38.1	3.37	4400	1320	–	–	–
COc1ccc(-c2ccc3c(c2)CC(C)(C)[C@H]3NC(=O)O[C@@H]2CN3CCC2CC3)c(Cl)c1 [Example 43, (S)-quinuclidin-3-yl((R)-5-(2-chloro-4-methoxyphenyl)-2,2-dimethyl-2,3-dihydro-1H-inden-1-yl)carbamate]	–	–	6.4	3.65	5720	1560	–	–	–
Cc1ccc(-c2ccc3c(c2)CC(C)(C)[C@H]3NC(=O)O[C@@H]2CN3CCC2CC3)cc1Cl [Example 45, (S)-quinuclidin-3-yl((R)-5-(3-chloro-4-methylphenyl)-2,2-dimethyl-2,3-dihydro-1H-inden-1-yl)carbamate]	–	–	6	9.09	7820	858	–	–	–
CC(C)COc1ccc(-c2cc3c(cc2F)[C@H](NC(=O)O[C@@H]2CN4CCC2CC4)C(C)(C)C3)cc1 [Example 57, (S)-quinuclidin-3-yl((R)-6-fluoro-5-(4-isobutoxyphenyl)-2,2-dimethyl-2,3-dihydro-1H-inden-1-yl)carbamate]	–	–	0.99	20.9	1330	63.7	–	–	–
CC(C)c1ccc(-c2cc3c(cc2F)[C@H](NC(=O)O[C@@H]2CN4CCC2CC4)C(C)(C)C3)cc1 [Example 59, (S)-quinuclidin-3-yl((R)-6-fluoro-5-(4-isopropylphenyl)-2,2-dimethyl-2,3-dihydro-1H-inden-1-yl)carbamate]	–	–	4.3	9.7	4120	436	–	–	–
CCCc1ccc(-c2cc3c(cc2F)[C@H](NC(=O)O[C@@H]2CN4CCC2CC4)C(C)(C)C3)cc1 [Example 61, (S)-quinuclidin-3-yl((R)-6-fluoro-2,2-dimethyl-5-(4-propylphenyl)-2,3-dihydro-1H-inden-1-yl)carbamate]	–	–	10.6	11.1	4880	439	–	–	–
CC(C)Cc1ccc(-c2cc3c(cc2F)[C@H](NC(=O)O[C@@H]2CN4CCC2CC4)C(C)(C)C3)cc1 [Example 62, (S)-quinuclidin-3-yl((R)-6-fluoro-5-(4-isobutylphenyl)-2,2-dimethyl-2,3-dihydro-1H-inden-1-yl)carbamate]	–	–	3.4	6.83	2960	434	–	–	–
COc1c(C)cc(-c2cc3c(cc2F)[C@H](NC(=O)O[C@@H]2CN4CCC2CC4)C(C)(C)C3)cc1C [Example 63, (S)-quinuclidin-3-yl((R)-6-fluoro-5-(4-methoxy-3,5-dimethylphenyl)-2,2-dimethyl-2,3-dihydro-1H-inden-1-yl)carbamate]	–	–	20.6	1.4	1360	974	–	–	–
Cc1cc(-c2cc3c(cc2F)[C@H](NC(=O)O[C@@H]2CN4CCC2CC4)C(C)(C)C3)cc(C)c1OC(C)C [Example 65, (S)-quinuclidin-3-yl((R)-6-fluoro-5-(4-isopropoxy-3,5-dimethylphenyl)-2,2-dimethyl-2,3-dihydro-1H-inden-1-yl)carbamate]	–	–	8.8	5.04	4080	811	–	–	–
CC(C)Oc1ccc(-c2cc3c(cc2F)[C@H](NC(=O)O[C@@H]2CN4CCC2CC4)C(C)(C)C3)cc1Cl [Example 66, (S)-quinuclidin-3-yl((R)-5-(3-chloro-4-isopropoxyphenyl)-6-fluoro-2,2-dimethyl-2,3-dihydro-1H-inden-1-yl)carbamate]	–	–	5.04	7.85	5490	719	–	–	–
COc1ccc(-c2cc3c(cc2F)[C@H](NC(=O)O[C@@H]2CN4CCC2CC4)C(C)(C)C3)c(F)c1 [Example 67, (S)-quinuclidin-3-yl((R)-6-fluoro-5-(2-fluoro-4-methoxyphenyl)-2,2-dimethyl-2,3-dihydro-1H-inden-1-yl)carbamate]	–	–	5.3	4.11	3670	903	–	–	–
CC(C)Oc1ccc(-c2cc3c(cc2F)[C@H](NC(=O)O[C@@H]2CN4CCC2CC4)C(C)(C)C3)cc1 [Example 68, (S)-quinuclidin-3-yl((R)-6-fluoro-5-(4-isopropoxyphenyl)-2,2-dimethyl-2,3-dihydro-1H-inden-1-yl)carbamate]	–	–	1.54	9.77	13500	1420	–	–	–
CC(C)Oc1cccc(-c2cc3c(cc2F)[C@H](NC(=O)O[C@@H]2CN4CCC2CC4)C(C)(C)C3)c1 [Example 81, (S)-quinuclidin-3-yl((R)-6-fluoro-5-(3-isopropoxyphenyl)-2,2-dimethyl-2,3-dihydro-1H-inden-1-yl)carbamate]	–	–	18.7	–	–	–	–	–	–
